Experimental data: PMC12717099, “Peptidoglycan recruitment by a penicillin binding protein” (Nature Communications, 2025)

Key:
[1] = system: E. faecium D344SRF, Wild Type; format: cell-based, Enterococcus faecium; conditions: strain Wild Type; disks Ampicillin 10 μg, Penicillin 10 U, Ceftriaxone 30 μg; BHI agar, 37 °C, 24 h; n=3
Procedure: (§1) E. faecium strains were streaked fresh from −80 °C stored glycerol stocks onto brain heart infusion (BHI) agar plates and incubated for 18 h at 37 °C. Strains harboring the plasmid derivatives were grown under antibiotic pressure on agar plates containing kanamycin at 1500 µg/ml. A single colony was inoculated into BHI or BHI-kanamycin (1500 µg/ml) for overnight cultures (18 h).
(§2) Antibiotic disks used were manufactured by BD BBL^TM. Disk diffusion assays were performed according to the Clinical and Laboratory Standards Institute (CLSI) guidance. Overnight cultures were inoculated into 3 ml of BHI or BHI-kanamycin (1500 µg/ml) broth with a dilution of 1:100 and incubated until an OD600 of ~0.5 was reached. The OD600 was adjusted to 0.01 to get the inoculum suspension. […] The plates were incubated at 37 °C and the zones of inhibition were measured after 24 h. All experiments were conducted in triplicate.

[2] = system: E. faecium D344SRF pCWR624Δpbp5_pbp5_V1; assay: Disk diffusion assay, pbp5_V1; format: cell-based, Enterococcus faecium; conditions: strain pbp5_V1 (N523A); 37 °C, 24 h; n=3
Procedure: (§3) The synthetic genes were purchased from GeneWiz (South Plainfield, NJ). The ribosome binding site sequence AGGAGG (Shine-Dalgarno), and a string of five A’s followed by the sequence […], that corresponds to the first 15 bp found in pbp5 from E. faecium C68 were added upstream of the START codon. The terminator sequence […] was added downstream of the STOP codon. BamHI restriction sites were added to the flanking 5′ and 3′ ends. The synthetic genes were inserted into the vector pCWR624Δpbp5. This vector was derived from pCWR624[10], in which the pbp5 gene from D366 was excised by digestion with BamHI followed by re-ligation of the vector, allowing subsequent insertion of modified synthetic pbp5s into the BamHI site downstream of ftsWEfm and psr from E. faecium C68[10]. The synthetic genes were inserted in a BamHI site located downstream of psr. The proper orientation was confirmed by PCR amplification using the forward primer OR_pbp5_FOR_1 (5′-[…]-3′) and the reverse primer OR_pbp5_REV_1 (5′-[…]-3′). Plasmids were sequence verified for the specific binding site mutations. The resulting constructions were electroporated into the natural pbp5(-) mutant E. faecium D344SRF with a selection on brain heart infusion agar (BHI) plates containing kanamycin (1500 µg/ml).
as §1
as §2, with “reached.” for “reached. The OD600 was adjusted to 0.01 to get the inoculum suspension.”, “All experiments were conducted in triplicate.” left out

[3] = system: E. faecium D344SRF pCWR624Δpbp5_pbp5_V3; assay: MIC by broth microdilution, pbp5_V3; format: cell-based, Enterococcus faecium; conditions: strain pbp5_V3 (loop 625-631); 37 °C, 20 h; n=3
Procedure: as §3, §1
(§4) MIC determination was performed using a standard broth microdilution technique in duplicate from independent cultures. Overnight cultures were inoculated into 3 ml of BHI or BHI-kanamycin (1500 µg/ml) broth in a dilution of 1:100 and incubated until an OD600 of ~0.5 was reached. Cultures were diluted 1:1000 and inoculated into the 96-well plates with the corresponding antibiotics to be tested. Plates were incubated at 37 °C for 20 h and read by eye. […]

[4] = system: E. faecium D344SRF pCWR624Δpbp5_pbp5_V5; assay: MIC by broth microdilution, pbp5_V5; format: cell-based, Enterococcus faecium; conditions: strain pbp5_V5 (Q396A_E397A); 37 °C, 20 h; n=3
Procedure: as §3, §1, §4

PBP2B = assay: 1D 1H STD NMR of SP2 with PBP2B; format: binding, E. faecalis; conditions: for STD amplification factor, 2000: protein:peptide 1:100, 2 s saturation
Text: Total saturation time for STD measurements was 2 s.
Overlapped peaks were completely excluded from the analysis.

CO/N=C(\C(=O)N[C@@H]1C(=O)N2C(C(=O)O)=C(CSc3nc(=O)c(=O)[nH]n3C)CS[C@H]12)c1csc(N)n1 [Ceftriaxone, ceftriaxone]
Zone Size (mm) [Range] [1]: 20 [20-26] mm | Zone Size (mm) [Range] [2]: 0 [0] mm | MIC (µg/ml) [Range] [3]: 25 [25] µg/ml | MIC (µg/ml) [Range] [4]: > 3200 [>3200] µg/ml

D-Lac-L-Ala-D-iGln-L-Lys(D-iAsn) [SP2]
STD % to SP1 (PBP2B; 1H DLacβ): 24.9553% | STD amplification factor as fraction of highest SP1:PBP5 value (PBP2B; 1H DLacβ): 0.2496 | STD amplification factor, 2000 (PBP2B; 1H DLacβ): 6.715 | STD % to SP1 (PBP2B; 1H DQ2β (first listed)): 52.517% | STD amplification factor as fraction of highest SP1:PBP5 value (PBP2B; 1H DQ2β (first listed)): 0.5252 | STD amplification factor, 2000 (PBP2B; 1H DQ2β (first listed)): 14.1315 | STD % to SP1 (PBP2B; 1H DQ2β (second listed)): 59.0483% | STD amplification factor as fraction of highest SP1:PBP5 value (PBP2B; 1H DQ2β (second listed)): 0.5905 | STD amplification factor, 2000 (PBP2B; 1H DQ2β (second listed)): 15.8889 | STD % to SP1 (PBP2B; 1H DQ2γ): 22.6012% | STD amplification factor as fraction of highest SP1:PBP5 value (PBP2B; 1H DQ2γ): 0.226 | STD amplification factor, 2000 (PBP2B; 1H DQ2γ): 6.082 | STD % to SP1 (PBP2B; 1H K3α): 41.2007% | STD amplification factor as fraction of highest SP1:PBP5 value (PBP2B; 1H K3α): 0.412 | STD amplification factor, 2000 (PBP2B; 1H K3α): 11.0865 | STD % to SP1 (PBP2B; 1H K3β): 85.7339% | STD amplification factor as fraction of highest SP1:PBP5 value (PBP2B; 1H K3β): 0.8573 | STD amplification factor, 2000 (PBP2B; 1H K3β): 23.0696 | STD % to SP1 (PBP2B; 1H K3γ): 40.677% | STD amplification factor as fraction of highest SP1:PBP5 value (PBP2B; 1H K3γ): 0.4068 | STD amplification factor, 2000 (PBP2B; 1H K3γ): 10.9455 | STD % to SP1 (PBP2B; 1H K3δ): 54.3796% | STD amplification factor as fraction of highest SP1:PBP5 value (PBP2B; 1H K3δ): 0.5438 | STD amplification factor, 2000 (PBP2B; 1H K3δ): 14.6327 | STD % to SP1 (PBP2B; 1H K3ε): 13.0751% | STD amplification factor as fraction of highest SP1:PBP5 value (PBP2B; 1H K3ε): 0.1308 | STD amplification factor, 2000 (PBP2B; 1H K3ε): 3.518 | STD % to SP1 (PBP2B; 1H LA1α): 44.8726% | STD amplification factor as fraction of highest SP1:PBP5 value (PBP2B; 1H LA1α): 0.4487 | STD amplification factor, 2000 (PBP2B; 1H LA1α): 12.0745 | STD % to SP1 (PBP2B; 1H LA1β): 28.2398% | STD amplification factor as fraction of highest SP1:PBP5 value (PBP2B; 1H LA1β): 0.2824 | STD amplification factor, 2000 (PBP2B; 1H LA1β): 7.599 | STD % to SP1 (PBP2B; 1H iNα,DQ2α): 20.0674% | STD amplification factor as fraction of highest SP1:PBP5 value (PBP2B; 1H iNα,DQ2α): 0.2007 | STD amplification factor, 2000 (PBP2B; 1H iNα,DQ2α): 5.4 | STD % to SP1 (PBP2B; 1H iNβ): 22.5751% | STD amplification factor as fraction of highest SP1:PBP5 value (PBP2B; 1H iNβ): 0.2258 | STD amplification factor, 2000 (PBP2B; 1H iNβ): 6.075
